In PubChem BioAssay AID1259418 (Broad Institute, 2018):
Where “and” joins values, the source holds several entries; their conditions need not be identical. Identical values can stand only once. Inconclusive results are not listed. Calls of active or inactive are those of the source.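 How the source made its calls: active means fitted half-maximal concentration of signal decrease at or below twice the sample's top tested concentration; inconclusive means flat curve between -70 and -30 percent, or poor fit; inactive means flat within 30 percent, signal rise, or potency above limit.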 Starred links: 1 amine or outer side, 2 acyl side, 3 side chain; linkers in the order of their positions; H or OH if unused. Positions of bridges follow the written chain, without caps; N, C: chain ends. Non-standard residues stand in square brackets, D forms with d. Residues, ends and D or L forms follow the SMILES beside them. ξ: configuration not given here. *: point of attachment. pTerphenylCO(4''-OnC5H11) = CCCCCOc1ccc(-c2ccc(-c3ccc(C(=O)*)cc3)cc2)cc1; ξOrn(4,5-diOH) = O=C(C(CC(O)C(O)N[*:3])N[*:1])[*:2]; ξhTyr(βξ-OH,γξ-OH) = NC(C(=O)O)C(O)C(O)c1ccc(O)cc1; ξPro(3ξ-OH,4ξ-Me) = CC1CNC(C(=O)O)C1O; Hyp = O=C(O)[CH]1C[CH](O)CN1

Target: T. gondii ME49Luc in IFN-y HeLa, luciferase, 72 h
Assay: T. gondii growth inhibition with IFN-gamma, dose response, cell-based, ME49Luc, HeLa, luciferase, 72 h (AID 1259418)

Row | SMILES | AC50
1 | CC(C)Cc1ccc(S(=O)(=O)N2CCC3(CC2)NCCN=C3NCc2ccc(F)cc2)cc1 | 6.29 µM
2 | Cc1ccc(S(=O)(=O)N2CCC3(CC2)NCCN=C3NCc2cc(F)cc(F)c2)cc1C | 30.1 µM
3 | Cc1ccc(CNC2=NCCNC23CCN(S(=O)(=O)c2cc(C)cc(C)c2)CC3)cc1 | 23.4 µM
4 | Cc1ccc(S(=O)(=O)N2CCC3(CC2)NCCN=C3NC2CCCCCC2)cc1C | 18.6 µM
5 | CC(C)CC(=O)N1CCC2(CC1)Nc1cc(F)ccc1-n1cccc12 | > 39 µM (inactive)
6 | O=C(c1ccc(F)cc1)N1CC(=O)N2[C@@H](CO)[C@@H](c3ccc(C#CCC4CCCC4)cc3)[C@@H]2C1 | 23.5 µM
7 | O=C1CCc2cc(S(=O)(=O)N3CCc4ccccc43)cc3c2N1CCC3 | > 39 µM (inactive)
8 | COc1cccc(C(=O)Nc2ccc3c(c2)C(=O)N(C)[C@@H]2CC[C@H](CC(=O)N[C@H](C)c4ccccc4)O[C@@H]2CO3)c1 | 19.4 µM
9 | CCc1ccccc1-c1cccc(-n2cnnc2)c1 | 19.9 µM
10 | CCOc1ccc(-c2nc(CN3CCN(C(=O)Nc4ccc(C)cc4Cl)CC3)c(C)o2)cc1 | 24.1 µM
11 | Cc1ccc(NC(=O)CN2CCC3(CC2)N=C(c2cccc(Cl)c2)C(=O)N3)cc1 | 28 µM
12 | Cc1ccccc1-c1nc(CN2CCN(C(=O)NC3CCCC3)CC2)c(C)o1 | > 39 µM (inactive)
13 | CCc1nc(OCC(=O)NCc2ccc(SC)cc2)c2ccccc2n1 | > 39 µM (inactive)
14 | Cc1ccc(-c2nc(Cn3nnc(-c4nc(-c5cccs5)no4)c3C)c(C)o2)cc1 | 3.2 µM
15 | COc1cccc(-c2ccc3c(c2)[C@@H]2[C@@H](CCN2C(=O)c2ccccc2F)[C@H](CO)N3C)c1 | 14.4 µM and 10.9 µM
16 | Cc1ccc(C)c(S(=O)(=O)N2CCC3(CC2)NCCN=C3NCc2ccccc2Cl)c1 | 5.36 µM
17 | COc1ccc(-c2nc(NCCCN3CCCC(C)C3)c3ccccc3n2)cc1 (centres undefined) | > 20 µM (inactive)
18 | O=S(=O)(c1cccs1)N1CCCCN2[C@H](C1)[C@@H](c1ccc(/C=C/c3ccccc3)cc1)[C@@H]2CO | 15.3 µM
19 | COc1ccc(-c2nc(CN(c3ccccc3OC)S(=O)(=O)c3ccccc3)c(C)o2)cc1 | 7.78 µM
20 | COc1cccc(-c2nc3c(s2)CN(C(=O)Nc2ccc(Cl)cc2)CC3)c1 | > 20 µM (inactive)
21 | Cc1ccc(CSC2=Nc3ccccc3C3=NC(CCC(=O)NCc4cccs4)C(=O)N23)c(C)c1 (centres undefined) | 21.4 µM
22 | COc1ccccc1-c1nc(C)c(-c2ccc(SCc3c(F)cccc3Cl)nn2)s1 | 38.4 µM

Row | SMILES | AC50
23 | CC(C)CC#Cc1ccc([C@H]2[C@@H](CO)N3C(=O)CN(C(=O)c4cccc(F)c4)C[C@H]23)cc1 | 15.5 µM
24 | CC/C(=C(\c1ccccc1)c1ccc(OCCN(C)C)cc1)c1ccccc1 | 35.2 µM
25 | O=C(c1cnccn1)N1CC(=O)N2[C@H](CO)[C@@H](c3ccc(/C=C/c4ccccc4)cc3)[C@@H]2C1 | 21.7 µM and 13.2 µM
26 | Cc1nc(OCC(=O)Nc2c(C)cccc2C)c2ccccc2n1 | 28.8 µM
27 | O=S(=O)(c1ccc2c(c1)CCCC2)N1CCC2(CC1)NCCN=C2NCc1ccc(Cl)cc1 | 9.16 µM
28 | Cc1ccccc1-c1ccc([C@H]2[C@@H](CO)N3CCCCN(S(=O)(=O)Cc4ccccc4)C[C@H]23)cc1 | 17.6 µM and 13.3 µM
29 | COc1cccc(NC(=O)N2CCc3nc(-c4ccc(C)cc4)sc3C2)c1 | 26.8 µM
30 | CCCCNC(=O)CCC1N=C2c3ccccc3N=C(SCc3ccc(C)cc3C)N2C1=O (centres undefined) | 25.1 µM
31 | Cc1ccc(C(=O)Nc2c(C(=O)NCc3cccnc3)[nH]c3ccccc23)cc1 | > 39 µM (inactive)
32 | CCC(=O)N1CC[C@@H]2[C@H]1c1cc(C#Cc3ccccc3F)ccc1N[C@@H]2CO | 29.2 µM
33 | CCc1ccc(C(=O)Nc2ccc3c(c2)CCC(=O)N3C)cc1 | 7.06 µM
34 | Cc1ccc(-c2nc(CN(c3ccccc3)S(=O)(=O)c3cccs3)c(C)o2)cc1 | 10.8 µM
35 | Cc1ccc(-c2nc(Cn3nnc(-c4nc(-c5ccccc5)no4)c3C)c(C)o2)cc1 | > 20 µM (inactive)
36 | CC(C)(C)c1ccc(S(=O)(=O)N2CCC[C@@H]2C(=O)NCCc2csc(-c3ccccc3)n2)cc1 | 4.48 µM
37 | O=C(CCC1N=C2c3ccccc3N=C(SCc3cccc(F)c3)N2C1=O)NCc1cccs1 (centres undefined) | 20.3 µM
38 | O=S(=O)(c1ccccc1)N1CCCCN2[C@H](CO)[C@@H](c3ccc(C#CC4CCCC4)cc3)[C@@H]2C1 | 13.4 µM
39 | Cc1ccc(-c2noc(-c3ccc(N4CCC(N5CCCCC5)CC4)nc3)n2)cc1 | 24.8 µM
40 | COc1ccc(-c2nc3c(s2)CN(C(=O)Nc2cccc(C)c2)CC3)cc1OC | > 39 µM (inactive)
41 | O=C(Nc1ccccc1F)N1CCCCN2[C@@H](CO)[C@@H](c3ccc(/C=C/c4ccccc4)cc3)[C@@H]2C1 | 22 µM
42 | COc1ccc(NC(=O)N2CCCCN3[C@H](CO)[C@@H](c4ccc(-c5ccccc5F)cc4)[C@@H]3C2)cc1 | 29.6 µM
43 | COc1ccc(-c2ccc(C3[C@@H]4CN(C(=O)c5ccc(F)cc5)C[C@H]3N4)cc2)cc1 (some centres undefined) | 15.8 µM and 11.3 µM
44 | O=C(Cc1ccncc1)N1C[C@@H]2N[C@H](C1)C2c1ccc(/C=C/c2ccccc2)cc1 (some centres undefined) | 20.9 µM

Row | SMILES | AC50
45 | CC(C)CNC(=O)c1cc(-c2ccn(CC3CC3)n2)n2ccccc12 | 13.3 µM
46 | Cc1ccc(-c2coc(-c3ccc(NS(=O)(=O)c4ccc(Br)cc4)cc3)n2)c(C)c1 | 27.9 µM
47 | CCCCCOc1ccc(-c2ccc(-c3ccc(C(=O)NC4CC(O)C(O)NC(=O)C5C(O)C(C)CN5C(=O)C(C(C)O)NC(=O)C(C(O)C(O)c5ccc(O)cc5)NC(=O)C5CC(O)CN5C(=O)C(C(C)O)NC4=O)cc3)cc2)cc1 (stereo not drawn) ({pTerphenylCO(4''-OnC5H11)}-[ξOrn(4,5-diOH)]T[Hyp][ξhTyr(βξ-OH,γξ-OH)]T[ξPro(3ξ-OH,4ξ-Me)]; lactam 1-C; configuration not given here) | 25 µM
48 | COc1ccc(CNC2=NCCNC23CCN(S(=O)(=O)c2ccc(Cl)s2)CC3)cc1 | 3.91 µM
49 | COc1ccc(-c2nc(NCc3cccnc3)c3ccccc3n2)cc1 | 21.7 µM
50 | O=C(Cc1cccnc1)N1CC(=O)N2[C@H](CO)[C@@H](c3ccc(C#CC4CCCCC4)cc3)[C@H]2C1 | 16.4 µM
51 | COc1ccc(-c2nc(NCC3CCN(Cc4ccc(C)cc4)C3)c3ccccc3n2)cc1 (centres undefined) | 13.5 µM
52 | COC(=O)c1ccccc1NC(=O)COc1nc(C)nc2ccccc12 | 20.9 µM
53 | O=C(NCCc1csc(-c2ccccc2)n1)C1CCN(S(=O)(=O)c2ccc(Cl)cc2)CC1 | 14.6 µM
54 | Cc1ccc(-c2nc(Cn3c(=O)c4c(C)cc(C)nc4n(-c4ccccc4)c3=O)c(C)o2)cc1 | 30.9 µM
55 | Cc1ccc(NC(=O)N2CCN(Cc3nc(-c4cccc(Cl)c4)oc3C)CC2)cc1Cl | 15.7 µM
56 | O=C1CN(S(=O)(=O)c2cccc(F)c2)C[C@@H]2[C@@H](c3ccc(C4=CCCC4)cc3)[C@H](CO)N12 | > 39 µM (inactive)
57 | Cc1c(Cl)cccc1NC(=O)CN1CCC2(CC1)N=C(c1cccc(F)c1)C(=O)N2 | > 39 µM (inactive)
58 | CCc1cc(C(=O)Nc2ccc(C)cc2-c2cc(C)[nH]n2)c2c(C)noc2n1 | 11.8 µM
59 | N#C[C@H]1N[C@@H](CO)[C@@H]1c1ccc(C#CC2CCCCC2)cc1 | 19.1 µM
60 | C/C=C/c1ccc([C@H]2[C@@H](CO)N3CCCCN(S(=O)(=O)c4ccc(OC)cc4)C[C@H]23)cc1 | 15.7 µM
61 | CCOc1ccc(-c2nc(CN(c3ccc(OC)cc3)S(=O)(=O)c3ccccc3)c(C)o2)cc1 | 21.1 µM
62 | C=CC[C@@H]1CC=C[C@@H](C)N1C(=O)CCn1c(C)cc(C)nc1=O | 26.4 µM
63 | Cc1cccc(CN2CCC3(CC2)N=C(c2cccc(C)c2)C(=O)N3)c1 | > 20 µM (inactive)
64 | Cc1cccc(-c2nc(Cn3nnc(-c4nc(-c5ccncc5)no4)c3C)c(C)o2)c1 | 8.63 µM
